What was measured:
[1] = test system: biomarkers for myocardial infarction risk; details: clinical trial; cited from earlier work
human glomerulonephritis = details: clinical trial; cited from earlier work
[2] = test system: apoE/LDL-R double knockout mice; details: oral dosing, high-fat diet from 2 months of age to 6 months; cited from earlier work
ApoE−/−xCD4dnTβRII mice = details: administration via infusion, treated for four weeks; cited from earlier work
[3] = biological target: recombinant human FLAP protein (Homo sapiens (Human), UniProt P20292); experiment: FLAP binding assay (Scintillation Proximity Assay); details: displacement of [125I]L-691,831, membranes of sf9 cells expressing human FLAP; read-out: SPA IC50
Method: Compounds are assessed for the ability to bind to FLAP in a binding assay that measures compound-specific displacement of an iodinated (^125I) FLAP inhibitor via a Scintillation Proximity Assay format (adapted from S. Charleson et al., Mol. Pharmacol., 1992, 41, 873-879).
Cell pellets produced from sf9 insect cells expressing recombinant human FLAP protein are resuspended in buffer A [15 mM Tris-HCl (pH 7.5), 2 mM MgCl2, 0.3 mM EDTA, 1 mM PMSF]. The cells are lysed with a Dounce homogenizer and the material is centrifuged at 10,000×g for 10 minutes. The supernatant is then collected and centrifuged at 100,000×g for 60 minutes. To prepare membrane protein for an assay, an aliquot of the 100,000×g pellet is resuspended in 1 ml of buffer A, Dounce homogenized, and finally subjected to polytron mixing (30 seconds). Membrane protein (25 μl, 5 μg) is mixed with WGA SPA beads (Amersham) and stirred for 1 h. To an assay plate (Perkin Elmer FlexiPlate) is added 25 μl of test compound prepared in Binding buffer [100 mM Tris (pH 7.5), 140 mM NaCl, 5% glycerol, 2 mM EDTA, 0.5 mM TCEP, 0.05% Tween 20], 25 μl of [^125I]L-691,831 (an iodinated analog of MK-591, Charleson et al. Mol. Pharmacol., 41, 873-879, 1992) and finally 50 μl of the bead/protein mixture. (final concentrations: beads, 200 μg/well; protein, 5 μg/well; [^125I] probe, 0.08 nM/well (17 nCi/well). The plates are shaken for 2 h before reading on a Microbeta plate reader. Non-specific binding is determined by the addition of 10 μM cold L-691,831 compound.

[4] = test system: synthesis of LTB4 in human whole blood; experiment: human whole blood LTB4 production inhibition assay; format: cell-based; details: heparinized human whole blood, calcimycin-stimulated, plasma LTB4; read-out: hWB IC50
Method: Compounds are additionally tested in a human whole blood assay to determine their ability to inhibit the synthesis of LTB4 in a cellular system. Compounds are combined with heparinized human whole blood and incubated for 15 minutes at 37° C. Calcimycin ([…], prepared in phosphate-buffered saline, pH 7.4) is then added and the mixture is incubated for another 30 minutes at 37° C. The samples are centrifuged for 5 min at low speed (1500×g) and the plasma layer is removed. Plasma LTB4 concentrations are then measured using an antibody-based homogenous time-resolved fluorescence method (CisBio, Bedford, Mass.).

recombinant human FLAP protein, sequence (P20292 whole entry): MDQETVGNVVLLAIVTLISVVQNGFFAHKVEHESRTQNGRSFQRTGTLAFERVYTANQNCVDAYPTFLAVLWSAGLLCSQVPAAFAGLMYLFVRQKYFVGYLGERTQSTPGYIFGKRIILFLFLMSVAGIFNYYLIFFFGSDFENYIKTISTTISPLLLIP

Compound	IC50 [3] [nM]	IC50 [4] [nM]	also measured
O=C(O)[C@@H](c1ccc(OCc2ccc3ccccc3n2)cc1)C1CCCC1 [DG-031]			effect on biomarkers for myocardial infarction risk [1]: dose-dependent suppression of several biomarkers
CC(C)(C)Sc1c(CC(C)(C)C(=O)O)n(Cc2ccc(Cl)cc2)c2ccc(OCc3ccc4ccccc4n3)cc12 [MK-591]			effect on proteinuria (human glomerulonephritis): reduce proteinuria
CC(C)c1ccc2c(c1)c(SC(C)(C)C)c(CC(C)(C)C(=O)O)n2Cc1ccc(Cl)cc1 [MK-886]			decrease in plaque coverage in the aorta [2]: 56%; decrease in plaque coverage in the aortic root [2]: 43%; decrease in plaque area in the aortic root (ApoE−/−xCD4dnTβRII mice): ~40%
CC(C)(C)n1c(-c2ccccc2C(=O)Nc2cccnc2)nc2cc(-c3cnc(N)nc3)ccc21 [Example 22, 2-[5-(2-Amino-pyrimidin-5-yl)-1-tert-butyl-1H-benzoimidazol-2-yl]-N-pyridin-3-yl-benzamide]	1.5	2250	
CC(C)(C)n1c(-c2ccccc2C(=O)Nc2ccccn2)nc2cc(-c3cnc(N)nc3)ccc21 [Example 20, 2-[5-(2-Amino-pyrimidin-5-yl)-1-tert-butyl-1H-benzoimidazol-2-yl]-N-pyridin-2-yl-benzamide]	2.2	2700	
CCNC(=O)c1ccccc1-c1nc2cc(-c3cnc(N)nc3)ccc2n1C(C)(C)C [Example 23, 2-[5-(2-Amino-pyrimidin-5-yl)-1-tert-butyl-1H-benzoimidazol-2-yl]-N-ethyl-benzamide]	17.4	2230	
CC(C)(C)n1c(-c2cc(C(=O)O)ccc2F)nc2cc(-c3cnc(N)nc3)ccc21 [Example 15, 3-[5-(2-Amino-pyrimidin-5-yl)-1-tert-butyl-1H-benzoimidazol-2-yl]-4-fluoro-benzoic acid]	220	> 5000	
CC(C)(C)n1c(-c2ccccc2C(=O)NC2CCNCC2)nc2cc(-c3cnc(N)nc3)ccc21 [Example 25, 2-[5-(2-Amino-pyrimidin-5-yl)-1-tert-butyl-1H-benzoimidazol-2-yl]-N-piperidin-4-yl-benzamide]	460	> 5000	
